Results taken from patent US20070111967A1, “Organosilicon compounds and their use” (priority 2003, published 2007).

Q: With `COc1cc(OC)c(NC(=O)c2ccc(Cc3cc4c(cc3C)[Si](C)(C)C[Si]4(C)C)o2)c(OC)c1` as the molecule, how does the melting point read?
A: 105 °C
